Data set [1] can be described thus: Inhibition of recombinant Schistosoma manson carbonic anhydrase pre-incubated with enzyme for 15 mins by phenol red dye based stopped flow CO2 hydration assay. Set-up: species or system Schistosoma mansoni.
A short description of data set [2]: Selectivity ratio of Ki for inhibition of recombinant human carbonic anhydrase 2 to Ki for inhibition of recombinant Schistosoma manson carbonic anhydrase. The data set is classed as toxicity.
Data set [3] relates to Schistosoma mansoni. In words: Antischistosomal activity against Schistosoma mansoni Puerto-Rican infected in Swiss Webster mouse assessed as worm burden reduction at 100 mg/kg, ip administered at 42, 44 and 46 hrs post infection and measured after 2 weeks. It is filed as functional, organism-based.
Data set [4] deals with Schistosoma mansoni. Nature of the data set: Antischistosomal activity against Schistosoma mansoni Puerto-Rican infected in Swiss Webster mouse assessed as worm burden reduction at 50 mg/kg, ip administered at 42, 44 and 46 hrs post infection and measured after 2 weeks. It is filed as functional, organism-based.

The source made the active and inactive calls. The rule behind the calls is not given here.

For the compound `NS(=O)(=O)c1ccc(CCNC(=[Se])Nc2ccc(I)cc2)cc1`, in data set [1], the Ki (usually the equilibrium dissociation constant of an inhibitor or competing ligand from its target) was found to be 4.7 nM. The “Ratio Ki” value in data set [2] is reported as 12.2.

`NS(=O)(=O)c1ccc(NC(=[Se])Nc2ccc(F)cc2)cc1`: in data set [1], the Ki turned out to be 76.8 nM. The “Ratio Ki” value in data set [2] worked out at 0.9.

Regarding `NS(=O)(=O)c1ccc(CCNC(=[Se])Nc2cccc(C(F)(F)F)c2)cc1`, the Ki in data set [1] worked out at 4.5 nM. Besides, the “Ratio Ki” value in data set [2] was 0.97.

For `NS(=O)(=O)c1ccc(NC(=[Se])Nc2cccc(C(F)(F)F)c2)cc1`, in data set [1], the Ki came to 1.5 nM. Also, in data set [2], the “Ratio Ki” value was 4.1.

With `COc1ccccc1NC(=[Se])NCCc1ccc(S(N)(=O)=O)cc1`, the Ki in data set [1] amounted to 6.1 nM. In data set [2], the “Ratio Ki” value worked out at 0.7.

`NS(=O)(=O)c1ccc(CCNC(=[Se])Nc2ccccc2Cl)cc1`: in data set [1], the Ki was 5.8 nM. Also, the “Ratio Ki” value in data set [2] was determined as 0.6. Further, in the data set with Schistosoma mansoni [3], the result was inactive.

Regarding `NS(=O)(=O)c1ccc(NC(=O)Nc2ccc(F)cc2)cc1` [SLC-0111], the Ki in data set [1] is 54.3 nM. Further, in data set [2], the “Ratio Ki” value stood at 1.7. For the same compound, the outcome with Schistosoma mansoni [4] was inactive.

For `NS(=O)(=O)c1ccc(NC(=[Se])Nc2ccccc2Cl)cc1`, in data set [1], the Ki worked out at 6.8 nM. In addition, in data set [2], the “Ratio Ki” value was 0.6.

As for `NS(=O)(=O)c1ccc(CCNC(=[Se])Nc2ccc(Br)cc2)cc1`, the Ki in data set [1] came to 1.7 nM. Besides, in data set [2], the “Ratio Ki” value was 1.05.

Take `NS(=O)(=O)c1ccc(NC(=[Se])Nc2ccccc2F)cc1`: the Ki in data set [1] stood at 5.7 nM. Also, in data set [2], the “Ratio Ki” value is reported as 1.1.

Regarding `NS(=O)(=O)c1ccc(CCNC(=[Se])Nc2ccccc2F)cc1`, the Ki in data set [1] stood at 7.9 nM. Also, the “Ratio Ki” value in data set [2] is listed as 1.

With `NS(=O)(=O)c1ccc(NC(=S)Nc2ccc(F)cc2)cc1`, in data set [1], the Ki was determined as 23.3 nM. In addition, the “Ratio Ki” value in data set [2] came to 0.6.

As to `NS(=O)(=O)c1ccc(CCNC(=S)Nc2ccc(I)cc2)cc1`, the Ki in data set [1] turned out to be 37.6 nM. Besides, the “Ratio Ki” value in data set [2] worked out at 0.2.

As to `NS(=O)(=O)c1cccc(NC(=[Se])Nc2ccccc2)c1`, in data set [1], the Ki was determined as 426 nM. The “Ratio Ki” value in data set [2] is listed as 0.8.

As to `NS(=O)(=O)c1cccc(NC(=[Se])Nc2ccc(F)cc2)c1`, in data set [1], the Ki was 91.4 nM. In addition, the “Ratio Ki” value in data set [2] amounted to 4.2.

Regarding `NS(=O)(=O)c1ccc(CCNC(=[Se])Nc2ccc3ccccc3c2)cc1`, the Ki in data set [1] was 84.9 nM. Further, the “Ratio Ki” value in data set [2] worked out at 1.1.

For `NS(=O)(=O)c1ccc(NC(=[Se])Nc2ccccc2)cc1`, the Ki in data set [1] turned out to be 83.7 nM. Moreover, in data set [2], the “Ratio Ki” value stood at 0.6. The outcome in the data set with Schistosoma mansoni [3] was inactive.

Regarding `NS(=O)(=O)c1ccc(CCNC(=[Se])Nc2ccccc2)cc1`, the Ki in data set [1] was 3.2 nM. The “Ratio Ki” value in data set [2] came to 1.7.

Regarding `CC(=O)Nc1nnc(S(N)(=O)=O)s1` [ACETAZOLAMIDE], the Ki in data set [1] turned out to be 42.5 nM. For the same compound, the “Ratio Ki” value in data set [2] was 0.3.

Consider `NS(=O)(=O)c1ccc(CCNC(=O)Nc2ccc(I)cc2)cc1`, for which, in data set [1], the Ki is 13.3 nM. Also, the “Ratio Ki” value in data set [2] stood at 0.6.

These data come from ChEMBL document CHEMBL5034017, “Structural Insights into Schistosoma mansoni Carbonic Anhydrase (SmCA) Inhibition by Selenoureido-Substituted Benzenesulfonamides” (J Med Chem, 2021).
